Measurements as given in patent publication US9788539B2, “Platelet protection solution having beta-galactosidase and sialidase inhibitors” (Velico Medical, Inc., priority 2011, dated 2017).
“Also recorded” adds a separate entry of the source.

What was measured:
Type in all cases: cell-based
human platelets [1] = assay: Human platelets stored in 30% plasma and 70% PASa at RT, flow cytometry and pH; conditions: 7 days at RT
Protocol: Human platelets were obtained as described in Example 13. The platelet pellet was resuspended in PPP, ⅕ volumes of original PRP, and aliquoted into wells of a 96-well microtiter plate (60 μL per well). PAS (designated as PASa), containing 7.15 mM Na2HPO4, 2.24 mM NaH2PO4, 10 mM sodium citrate, 30 mM sodium acetate, 79.2 mM NaCl, 5.0 mM KCl, and 1.5 mM MgCl2, was added to corresponding wells at 140 μL per well, DANA was added to 0, 0.1, and 0.5 mM from 10 or 100 mM stock in PBS to proper wells. The sample volumes in the wells were evened out with PBS. The plate was then covered with a gas-permeable film and placed on a shaker. Platelet size and density were measured by forward (FSC) and side scatter (SSC) on a FACSCalibur flow cytometer (BD) at Day 7, and pH was checked at Day 9.

bacteria = assay: Bacterial detection in stored platelet concentrate with SLP reagent, time of color detection (TOCD); conditions: for time of color detection (TOCD): 1 mM DANA
Protocol: To increase the formation of planktonic bacteria, thereby improving the sensitivity of the bacterial detection, platelet storage studies were performed in a mixture of PAS (INTERSOL® solution) and plasma (80:20). Many bacterial detection methods are available. We used SLP Reagent Set (297-51501, Wako Chemicals USA), containing silkworm larvae plasma (SLP) and […] (DOPA), reconstituted according to manufacturer's instruction and stored as 100 μL aliquots at -80° C. When a sample is mixed with SLP reagent, peptidoglycan derived from the cell wall of Gram-positive and Gram-negative bacteria in the sample initiates a series of reactions including activation of multiple serine proteases called prophenoloxidase (proPO) cascade. The phenoloxidase (PO) produced in the cascade reactions oxidizes the substrate in the SLP reagent, […] (DOPA), to form melain (dark blue). The bacteria concentration in the test sample is inversely proportional to the onset time of color development: shorter time=higher concentration of bacteria; longer time=lower concentration of bacteria.
One bag of a platelet concentrate was split to two 50-mL Falcon tubes, PGE1 was added. After centrifugation at 900×g for 10 min, 80% of the supernatant (PPP) (relative to the total volume) was removed, and replaced with equal volume of platelet protection solution. The platelet was thoroughly re-suspended. The platelet suspensions were pooled and split to 4 aliquots in 15-mL Falcon tubes. DANA (1 mM) in PBS was added to two tubes while only PBS was added to the other tubes. One pair of samples with and without DANA was stored at 4° C. The second pair was kept at RT (22° C.-24° C.). Aliquots of 1.0 mL were removed on Day 0 and Day 9, and immediately pelleted (5 min, 15,800×g). […]
The pellet containing both platelets and bacteria, recovered from 1-mL aliquots sampled at different time points, was re-suspended in 100 μL of 0.1 M NaOH, and heated for 10 min at 70° C. […] The samples were left on the bench, and color development was monitored. The time of color detection (TOCD) was recorded.

mouse platelets [2] = assay: Sialidase (neuraminidase)-induced loss of platelet surface receptors, flow cytometry and immunoblot; conditions: mouse platelets, flow cytometry and Western blot
human platelets [3] = assay: Human platelets stored in plasma at RT, size and density by FSC/SSC; conditions: 72 h at RT in plasma
[4] = system: Serratia marcescens strain (ATCC #43862); assay: Biofilm formation of S. marcescens, crystal violet; conditions: 1 mM DANA, 48 h, crystal violet A595 nm
Protocol: To prepare the seed culture, the cryostock of Serratia marcescens was inoculated into 3 mL of brain-heart infusion broth with a cotton swab and incubated at 37° C. with agitation at 250 rpm for 6 h. The cell density was determined at 600 nm on a dual wavelength spectrometer and diluted to 0.5 McFarland Standard (1.5×10^8 cells/mL) with sterile PBS. Ten μL of the diluted culture was inoculated into 140 μL of 30% plasma in PAS, 30% PC by volume in PAS or 100% plasma, supplemented with or without 1 mM DANA, in the wells of 96-well PVC plates (Corning Biosciences). For each media, six replicates were performed. Ten μL of PBS was inoculated into the control wells. The microtiter plates were then sealed with sterile porous film (VWR) and placed on a platform shaker. The cultures were incubated for 48 h with gentle shaking (˜100 rpm). The cultures were gently mixed and transferred to a polystyrene plate for the determination of planktonic cell density at OD 595 nm. The wells on the original microtiter plates were washed with 3×200 μL of PBS, air dried, stained for 15 min with an aqueous solution of 0.1% (wt/vol) crystal violet, rinsed with water, and air dried for 1 hr. The crystal violet retained by the biofilm was eluted with 200 μL of dimethyl sulfoxide (DMSO) or 30% acetic acid, and read at 595 nm.

mouse platelets [5] = assay: Mouse platelets stored in 30% plasma and 70% INTERSOL solution at RT for 48 h, flow cytometry
Protocol: The supernatant, containing platelet rich plasma, buffy coat, and some RBC, was removed and centrifuged at 300×g for 6 min to obtain platelet rich plasma (PRP). […] About 70% of the supernatant (105 μL) was removed from each tube, and replaced with equal volume of […]® solution. […] The volumes in tubes lacking one or both additives were evened out with PBS. The platelet suspensions were stored at RT for 48 h on a shaker and analyzed by flow cytometry.

mouse platelets [6] = assay: Surface receptor loss of mouse platelets stored at room temperature; conditions: DANA added during storage
mouse platelets [7] = assay: Mouse platelets stored at RT for 48 h with different concentrations of DANA, counted by flow cytometry; conditions: 0.1 mM DANA, 48 h at RT
Protocol: Mouse platelets were isolated as described in Example 3, re-suspended in platelet resuspension buffer and split to four aliquots. […] The samples were incubated for 30 min at 37° C., centrifuged and supernatants removed. The platelets re-suspended in plasma. DANA and glucose were restored to their initial concentrations. The platelet suspensions were stored at RT. After 48 h, platelets under each storage condition were counted by flow cytometry.

CC(=O)NC1C(O)C=C(C(=O)O)OC1C(O)C(O)CO (stereo not shown) [DANA]
platelet microparticles (G2) (human platelets [1]; 0.1 mM DANA (41.5% without)): 23.95%
total acquired events gated as platelets (G1) (human platelets [1]; 0.1 mM DANA (55% without)): over 70%
platelet microparticles (G2) (human platelets [1]; 0.5 mM DANA): 13.52%
total acquired events gated as platelets (G1) (human platelets [1]; 0.5 mM DANA): 81.6%
bacterial growth in RT stored platelet samples (bacteria; DANA, compared with 4° C. storage): inhibits bacterial growth as effectively as 4° C.-storage
time of color detection (TOCD) (bacteria; Day 9, stored at 4° C.): ~50 min
time of color detection (TOCD) (bacteria; Day 9, stored at RT, INTERSOL/plasma 80:20 (15 min without DANA)): ~34 min
loss (shedding) of platelet GPIbα and GPV induced by sialidase/neuraminidase, in presence of inhibitor (mouse platelets [2]): completely prevented this loss; also recorded: prevented all GPIbα and GPV shedding; also recorded: inhibits the loss of platelet GPIbα
platelet shape by side and forward scatter (human platelets [3]; 0.5 mM DANA): visible improvement of the platelet shape
mean fluorescence intensity (MFI) of platelet count/SSC histogram (human platelets [3]; with DANA vs without): increased
formation of biofilm [4]: negatively impacted
platelet events within the platelet gate (mouse platelets [5]; 48 h at RT, DANA 1 mM and/or glucose 10 mM (57% in INTERSOL alone)): over 80%
state of platelet population by forward and side scatter (mouse platelets [5]; compared with glucose alone): more resting platelet population
GPIbα and GPV receptor expression of room temperature stored mouse platelets (mouse platelets [6]): preserved receptors expression; also recorded: inhibited
platelets recovered (mouse platelets [7]; 8 mM glucose, vs 0 mM DANA): approximately 5 fold
size and density of platelets by dot plot analysis (mouse platelets [7]): efficiently preserved the size and density of platelets
